Source: patent EP0908457B1, “3-(1,2-benzisothiazol- and isoxazol-5-Y1)-2,4(1H,3H)-pyrimidinedione or thione and 3-(1,2-benzisothiazol- and isoxazol-5-y1)-4(3H)-pyrimidinone or thione herbicidal agents” (BASF AKTIENGESELLSCHAFT, priority 1997, dated 1999)

Tests used:
[1] = test system: Echinochloa oryzoides (Ard.) Fritsch.; test: Preemergence weed control under flooded paddy conditions, ECHORC (Watergrass (Calif.)); type: in vivo; conditions: preemergence, flooded paddy; for herbicidal effect rating, ECHORC: rated 3-4 weeks after treatment; for ECHORC herbicidal rating: rated three to four weeks after treatment
Cyperus iria = test: Preemergence weed control under flooded paddy conditions, CYPIR (Rice Flatsedge); type: in vivo; conditions: preemergence, flooded paddy; for herbicidal effect rating, CYPIR: rated 3-4 weeks after treatment; for CYPIR herbicidal rating: rated three to four weeks after treatment
[2] = test system: Cyperus serotinus, Rottb.; test: Preemergence weed control under flooded paddy conditions, CYPSE (Flatsedge); type: in vivo; conditions: preemergence; for herbicidal effect rating, CYPSE: rated 3-4 weeks after treatment; for CYPSE herbicidal rating: rated three to four weeks after treatment
[3] = test system: Monochoria vaginalis, Presl.; test: Preemergence weed control under flooded paddy conditions, MOOVA (Monochoria); type: in vivo; conditions: preemergence, flooded paddy; for herbicidal effect rating, MOOVA: rated 3-4 weeks after treatment; for MOOVA herbicidal rating: rated three to four weeks after treatment
Sagittaria pygmaea, L. = test: Preemergence weed control under flooded paddy conditions, SAGPY (Arrowhead (Pygmaea)); type: in vivo; conditions: preemergence, flooded paddy; for herbicidal effect rating, SAGPY: rated 3-4 weeks after treatment; for SAGPY herbicidal rating: rated three to four weeks after treatment
[4] = test system: Oryza sativa, (L.) Tebonnet; test: Rice tolerance to post-transplant applications under flooded paddy conditions (Example 187), ORYSAT (Rice, Tebonnet); conditions: for herbicidal effect rating ORYSAT: rated 3-4 weeks after treatment; for ORYSAT herbicidal rating (rice tolerance): rated three to four weeks after treatment; on herbicidal effect rating ORYSAT: meaning of each grade not given here

C=CCOC(=O)C(C)(C)Oc1ccc(C)cc1-c1nsc2ccc(-n3c(=O)cc(C(F)(F)F)n(C)c3=O)cc12 [Example 530, Propionic acid, 2-{{2-{5-[3,6-dihydro-3-methyl-2,6-dioxo-4-(trifluoromethyl)-1(2H)-pyrimidinyl]-1,2-benzisothiazol-3-yl}-p-tolyl}oxy}-2-methyl-, allyl ester]
0.0: herbicidal effect rating, CYPIR (Cyperus iria; Rate 0.0320 kg/ha) | herbicidal effect rating, CYPSE ([2]; Rate 0.0320 kg/ha) | herbicidal effect rating, CYPSE ([2]; Rate 0.0620 kg/ha) | herbicidal effect rating, CYPSE ([2]; Rate 0.1250 kg/ha) | herbicidal effect rating, CYPSE ([2]; Rate 0.2500 kg/ha) | herbicidal effect rating, SAGPY (Sagittaria pygmaea, L.; Rate 0.0320 kg/ha) | herbicidal effect rating, SAGPY (Sagittaria pygmaea, L.; Rate 0.0620 kg/ha) | herbicidal effect rating ORYSAT ([4]; Rate 0.0320 kg/ha) | herbicidal effect rating ORYSAT ([4]; Rate 0.0620 kg/ha)
9.0: herbicidal effect rating, ECHORC ([1]; Rate 0.0320 kg/ha) | herbicidal effect rating, ECHORC ([1]; Rate 0.0620 kg/ha) | herbicidal effect rating, ECHORC ([1]; Rate 0.1250 kg/ha) | herbicidal effect rating, ECHORC ([1]; Rate 0.2500 kg/ha) | herbicidal effect rating, CYPIR (Cyperus iria; Rate 0.0620 kg/ha) | herbicidal effect rating, CYPIR (Cyperus iria; Rate 0.1250 kg/ha) | herbicidal effect rating, CYPIR (Cyperus iria; Rate 0.2500 kg/ha) | herbicidal effect rating, MOOVA ([3]; Rate 0.0320 kg/ha) | herbicidal effect rating, MOOVA ([3]; Rate 0.0620 kg/ha) | herbicidal effect rating, MOOVA ([3]; Rate 0.1250 kg/ha) | herbicidal effect rating, MOOVA ([3]; Rate 0.2500 kg/ha) | herbicidal effect rating, SAGPY (Sagittaria pygmaea, L.; Rate 0.2500 kg/ha) | herbicidal effect rating ORYSAT ([4]; Rate 0.2500 kg/ha)
3.0: herbicidal effect rating, SAGPY (Sagittaria pygmaea, L.; Rate 0.1250 kg/ha) | herbicidal effect rating ORYSAT ([4]; Rate 0.1250 kg/ha)

COC(=O)COc1cc(C)ccc1-c1nsc2cc(F)c(-n3c(=O)cc(C(F)(F)F)n(C)c3=O)cc12 [Example 479, Acetic acid, {{6-{5-[3,6-dihydro-3-methyl-2,6-dioxo-4-(trifluoromethyl)-1(2H)-pyrimidinyl]-6-fluoro-1,2-benzisothiazol-3-yl}-m-tolyl}oxy}-, methyl ester]
8.0: SAGPY herbicidal rating (Sagittaria pygmaea, L.; 0.2500 kg/ha)
3.0: SAGPY herbicidal rating (Sagittaria pygmaea, L.; 0.0320 kg/ha)
7.0: ECHORC herbicidal rating ([1]; 0.0320 kg/ha) | ECHORC herbicidal rating ([1]; 0.0620 kg/ha) | CYPSE herbicidal rating ([2]; 0.0620 kg/ha) | MOOVA herbicidal rating ([3]; 0.0620 kg/ha)
5.0: CYPIR herbicidal rating (Cyperus iria; 0.1250 kg/ha) | SAGPY herbicidal rating (Sagittaria pygmaea, L.; 0.0620 kg/ha) | ORYSAT herbicidal rating (rice tolerance) ([4]; 0.0320 kg/ha) | ORYSAT herbicidal rating (rice tolerance) ([4]; 0.0620 kg/ha)
6.0: SAGPY herbicidal rating (Sagittaria pygmaea, L.; 0.1250 kg/ha)
0.0: CYPIR herbicidal rating (Cyperus iria; 0.0320 kg/ha) | CYPIR herbicidal rating (Cyperus iria; 0.0620 kg/ha) | CYPSE herbicidal rating ([2]; 0.0320 kg/ha) | MOOVA herbicidal rating ([3]; 0.0320 kg/ha)
9.0: ECHORC herbicidal rating ([1]; 0.1250 kg/ha) | ECHORC herbicidal rating ([1]; 0.2500 kg/ha) | CYPIR herbicidal rating (Cyperus iria; 0.2500 kg/ha) | CYPSE herbicidal rating ([2]; 0.1250 kg/ha) | CYPSE herbicidal rating ([2]; 0.2500 kg/ha) | MOOVA herbicidal rating ([3]; 0.1250 kg/ha) | MOOVA herbicidal rating ([3]; 0.2500 kg/ha) | ORYSAT herbicidal rating (rice tolerance) ([4]; 0.1250 kg/ha) | ORYSAT herbicidal rating (rice tolerance) ([4]; 0.2500 kg/ha)
